Reference: US12208076B2 (Southern Methodist University, priority 2020, dated 2025)

Test: Thermogravimetric analysis (TGA), thermal stability
Type: physicochemical
Details: 10° C./min, nitrogen
Procedure: TGA. […] Each sample was placed in an alumina crucible and heated from 25 to 1000° C. at a heating rate of 10° C./min under a constant flow of nitrogen. […] The different thermal decomposition pattern of a-CAA further supports the hypothesis that the milling product is a co-amorphous formulation and not a physical mixture of amorphous starting materials. […] The similarity between the IR spectra of both formulations points to similarities in their local structures and is indicative of a 1:1 stoichiometry. This stoichiometry was confirmed by thermal analyses. […] The similar TGA profiles of dried c-CAA and a-CAA, shown in FIGS. 3A and 3B, further confirm that the co-amorphous and the co-crystalline formulation have the same stoichiometry and similar local structures.

Compound	decomposition temperature (stable up to) [°C]
O=C(O)CC(O)(CC(=O)O)C(=O)O [citric acid anhydrate]	164
CN(CC(=O)O)C(=N)N [creatine anhydrate]	220
